Measurements: ChEMBL document CHEMBL4049443, “Discovery of 2-[[2-Ethyl-6-[4-[2-(3-hydroxyazetidin-1-yl)-2-oxoethyl]piperazin-1-yl]-8-methylimidazo[1,2-a]pyridin-3-yl]methylamino]-4-(4-fluorophenyl)thiazole-5-carbonitrile (GLPG1690), a First-in-Class Autotaxin Inhibitor Undergoing Clinical Evaluation for the Treatment of Idiopathic Pulmonary …” (J Med Chem, 2017)

Tests used:
Autotaxin = Autotaxin (Homo sapiens, UniProt Q13822); assay: Inhibition of human ATX using LPC (16:0) as substrate after 30 mins by horseradish peroxidase/choline oxidase coupled enzyme based spectrophotometric analysis
Cytochrome P450 3A4 = Cytochrome P450 3A4 (Homo sapiens, UniProt P08684); assay: Time-dependent inhibition of human liver microsomes CYP3A4; format: ADME
Cytochrome P450 3A4, sequence (P08684 whole entry): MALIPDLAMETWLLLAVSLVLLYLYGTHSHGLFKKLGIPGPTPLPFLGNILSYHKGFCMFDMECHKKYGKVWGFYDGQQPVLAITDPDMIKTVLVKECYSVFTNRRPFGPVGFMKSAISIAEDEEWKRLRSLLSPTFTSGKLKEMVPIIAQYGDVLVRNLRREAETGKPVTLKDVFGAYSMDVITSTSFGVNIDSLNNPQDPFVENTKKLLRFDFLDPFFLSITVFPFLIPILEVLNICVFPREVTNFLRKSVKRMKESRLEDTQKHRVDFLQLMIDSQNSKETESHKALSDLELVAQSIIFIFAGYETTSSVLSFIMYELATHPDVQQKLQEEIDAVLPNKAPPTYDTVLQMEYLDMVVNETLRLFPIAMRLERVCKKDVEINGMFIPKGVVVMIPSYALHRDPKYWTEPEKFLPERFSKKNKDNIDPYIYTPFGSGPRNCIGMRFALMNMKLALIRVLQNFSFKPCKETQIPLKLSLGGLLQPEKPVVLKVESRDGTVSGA

CCc1nc2ccc(N3CCN(CC(=O)N4CC(O)C4)CC3)nn2c1N(C)c1nc(-c2ccc(F)cc2)c(C#N)s1
IC50 (Autotaxin): 60 nM
TDI (Cytochrome P450 3A4): Active
